{"source": "patent EP4537832A1", "about": "“METHOD FOR TREATING CANCER PATIENT WITH AKR1C3 ENZYME-ACTIVATED PRODRUG” (Ascentawits Pharmaceuticals, Ltd., priority 2022, dated 2023)", "key": {"p-ERK2": {"system": "p-ERK2", "assay": "Western blot in HPAF II cells with MEK/ERK modulators and AST: p-ERK2", "type": "cell-based", "from_the_text": "The experiment used three types of MEK/ERK modulators, including two inhibitors and one activator. The inhibitors were PD98059, a MEK1/2 specific inhibitor, and Suramin, a broad-spectrum growth factor receptor inhibitor; while the activator of the ERK signaling pathway is Phorbol Ester (TPA). The chemical structures of inhibitor PD98059, inhibitor Suramin, and activator TPA are as follows: [drawing 48] [drawing 49] [drawing 50]\nThe experiment was assigned to inhibitor group and activator group, both of which were performed by Western Blot and cell apoptosis experiments.\nIn the Western blot experiment, HPAF II cell suspensions were treated with each group of compounds, and cultured overnight in a 37 °C, 5% CO2 incubator, and the cell protein lysate was collected for Western blot (WB) detection.\n(§1) The specific compounds to be treated in the Western blot inhibitor group and activator group are as follows: Inhibitor group: 1% DMSO treatment group, 1 µM AST treatment group, 30 µM PD98059 treatment group, 1 mM Suramin treatment group, 1 µM AST + 30 µM PD98059 treatment group, and 1 µM AST + 1 mM Suramin treatment group; and Activator group: 1% DMSO treatment group, 0.5 µM AST treatment group, 25 nM TPA treatment group, and 0.5 µM AST + 25 nM TPA treatment group."}, "HPAF II cells": {"system": "HPAF II cells", "assay": "Cell apoptosis detection (Caspase Glo 3/7) in HPAF II cells with MEK/ERK modulators and AST", "type": "cell-based", "method": "Additionally, cell apoptosis detection was performed as follows: • 1) Caspase Glo® 3/7 reagents were prepared and equilibrated to room temperature. The buffer of the reagents and the substrate were mixed homogeneously at 1:1 to prepare Caspase Glo® 3/7 reagents. The configured reagents can be stored at 4 °C for 3 days. • 2) 100 µL Caspase Glo® 3/7 reagents were added to each well of culture medium containing 100 µL blank (wells without cells), negative control cells, or treated cells. Due to the sensitivity of the analysis, be careful not to make the tip of the pipette to touch the holes that contained samples to avoid cross contamination. The plates were covered with a plate sealant or lid. • 3) The reagent solutions were mixed gently using a shaker at a speed of 300-500 rpm for 30 seconds, and left in the dark at room temperature for 1 hour. • 4) The luminescence of each sample was measured in a plate reading photometer. And the luminescence value of each group was calculated, and analyze by making a column diagram.\nas §1, with “apoptosis” for “Western blot”, “Inhibition” for “Inhibitor”, “1” for “0.5”, “50” for “25”"}, "AKR1C3": {"system": "AKR1C3", "settings": "HPAF II cells; increasing SFN concentration 0.875-7 µM, overnight", "method": "(§2) The solution of SFN compound (Sulforaphane, NRF2 activator) was added to HPAF II cell suspension, cultured overnight in a 37 °C, 5% CO2 incubator, and the cell protein lysate was collected for Western blot (WB) detection.\n(§3) The experiment was assigned to 5 groups: 0.5% DMSO, 0.875 µM SFN, 1.75 µM SFN, 3.5 µM SFN, and 7 µM SFN.\n(§4) HPAF II cells were treated with different concentrations of NRF2 activator SFN, and then the expression of NRF2 and AKR1C3 was detected by Western blot."}, "NRF2": {"system": "NRF2", "settings": "HPAF II cells; increasing SFN concentration 0.875-7 µM, overnight", "method": "as §2, §3, §4"}}, "data": [{"compound": "COc1cccc(-c2cc(=O)c3ccccc3o2)c1N", "note": "[PD98059, reference compound]", "values": [{"measurement": "expression level of p-ERK2", "setting": "p-ERK2; 30 µM PD98059 alone", "value": "slightly reduced"}, {"measurement": "cell apoptosis (Caspase 3/7 luminescence)", "setting": "HPAF II cells; 30 µM PD98059 monotherapy", "value": "almost no effect on cell apoptosis"}]}, {"compound": "Cc1ccc(C(=O)Nc2ccc(S(=O)(=O)O)c3cc(S(=O)(=O)O)cc(S(=O)(=O)O)c23)cc1NC(=O)c1cccc(NC(=O)Nc2cccc(C(=O)Nc3cc(C(=O)Nc4ccc(S(=O)(=O)O)c5cc(S(=O)(=O)O)cc(S(=O)(=O)O)c45)ccc3C)c2)c1", "note": "[suramin, Suramin, reference compound]", "values": [{"measurement": "expression level of p-ERK2", "setting": "p-ERK2; 1 mM Suramin alone", "value": "slightly reduced"}, {"measurement": "cell apoptosis (Caspase 3/7 luminescence)", "setting": "HPAF II cells; 1 mM Suramin monotherapy", "value": "almost no effect on cell apoptosis"}]}, {"compound": "C[S+]([O-])CCCCN=C=S", "note": "(stereo not drawn) [SFN, Sulforaphane]", "values": [{"measurement": "expressions of AKR1C3", "setting": "AKR1C3", "value": "also increased simultaneously"}, {"measurement": "expressions of NRF2", "setting": "NRF2", "value": "significantly increased"}]}]}
